Results from publication PMC5562305, “Impact of novel palmitoylated prolactin-releasing peptide analogs on metabolic changes in mice with diet-induced obesity” (PLoS ONE, 2017).
Starred links: 1 amine or outer side, 2 acyl side, 3 side chain; linkers in the order of their positions; H or OH if unused. Residues, ends and D or L forms follow the SMILES beside them. Groups on a side chain read outwards from the residue. *: point of attachment. TTDA(Palmitoyl) = CCCCCCCCCCCCCCCC(=O)NCCCOCCOCCOCCCN*; Suc = O=C(CCC(=O)[*:2])[*:1]

Test system: urinary metabolites
Assay: NMR-based metabolomics of urine of DIO mice
Format: in vivo, C57BL/6 mice
Parameters: key to DMA, Mean / DMG, Mean / MA, Mean / TMA, Mean / acetate, Mean / allantoin, Mean / carnitine, Mean / choline, Mean / cis-aconitate, Mean / creatine+creatinine, Mean / creatine, Mean / creatinine, Mean / ethanolamine, Mean / formate, Mean / galactose, Mean / glucose, Mean / glycine, Mean / lactate, Mean / succinate, Mean / vinylacetylglycine, Mean: TSA-normalized intensity of the metabolite's representative NMR signal
Conditions: urine of DIO mice, NMR metabolomics
Description: Urine samples for NMR-based metabolomics were collected prior to the start of the interventions and at the end of the experiment. For overnight urine collection (from 5 pm to 8 am), the mice were housed in individual metabolic cages (Tecniplast, Buguggiate, Italy) without access to food. Samples were collected with the addition of NaN3 and stored at -80°C until NMR analysis.
The urine samples were thawed at room temperature and centrifuged at 13 684 x g for 5 min prior to the NMR experiments. A 200-μl aliquot of supernatant was diluted with 340 μl of H2O mixed with 60 μl of phosphate buffer (1.5 M KH2PO4 in D2O containing 2 mM NaN3 and 0.1% trimethylsilyl propionic acid (TSP), pH 7.4) and transferred to a 5-mm NMR tube. The NMR data were acquired with a 600 MHz Bruker Avance III spectrometer (Bruker BioSpin, Rheinstetten, Germany) equipped with a 5-mm TCI cryogenic probe head. All of the experiments were performed at 300 K. Automatic tuning, matching, shimming and adjusting of the 90° pulse length were performed for each sample.
As mouse urine naturally contains urinary proteins, the NMR spectra were acquired using a Carr-Purcell-Meiboom-Gill (CPMG) pulse sequence with water presaturation (Bruker pulse sequence cpmgpr1d) to eliminate the strong protein background. […] For better metabolite identification, a short J-resolved experiment with presaturation (NS = 2, SW = 16 ppm, TD = 8k, number of increments = 40, SW = 78.125 Hz in the indirect dimension, and relaxation delay = 2 s) was executed for all samples. Additional two-dimensional ^1H-^1H correlation spectroscopy (COSY) and ^1H-^13C heteronuclear multiple-quantum correlation (HMQC) experiments (Bruker pulse sequences cosygpprqf and hmqcphpr) were performed for selected samples.
The acquired data were processed using Topspin 3.2 software (Bruker BioSpin, Rheinstetten, Germany). Line broadening of 0.3 Hz was applied on free induction decays (FIDs) prior to Fourier transformation. The spectra were automatically phased, baseline corrected and referenced to the signal of TSP (0.00 ppm).
The assignment of individual metabolites was achieved by comparing the proton spectra with the spectra of pure metabolites using Chenomx NMR Suite 7.6 (Chenomx Inc., Edmonton, AB, Canada), the HMDB database and previously published metabolomic data. The identification of metabolites was supported through J-resolved and COSY experiments and, if possible, confirmed using carbon chemical shifts extracted from the HMQC spectra.
For quantitation of individual metabolites, the CPMG spectra were uniformly binned in the range of 0.10–10.00 ppm to 0.01-ppm intervals using AMIX software (Bruker BioSpin, Rheinstetten, Germany). This procedure reduced the dimensionality of the data, eliminated chemical shift variations and thus simplified the reproducible automatic quantification. Regions corresponding to water (4.60–4.90 ppm) and urea (5.60–6.00 ppm) were removed prior to analysis. As the dilutions of the original urine samples differed (due to the differences in water intake during urine collection), all of the spectra were normalized to the total spectral area (TSA). For each identified metabolite, one representative signal was chosen and then quantified as the sum of appropriate adjacent 0.01-ppm bins to cover the whole signal width. The metabolite concentration was expressed as the TSA-normalized intensity of the respective signal. For selection of an appropriate statistical method (parametric or non-parametric) the Lilliefors test of normality was performed. […] Metabolite alterations with a P < 0.05 were considered statistically significant. Statistical analysis was performed using Matlab software (“MATLAB version 8.6 (R2015b). Natick, Massachusetts: The MathWorks Inc., 2015.,” n.d.). […]

[1] = difference of analog mean vs saline mean

## CCCCCCCCCCCCCCCC(=O)NCCCOCCOCCOCCCNC(=O)CCC(=O)NCCCC[C@H](NC(=O)[C@@H](NC(=O)[C@H](CCC(=O)O)NC(=O)[C@H](CCSC)NC(=O)[C@H](CO)NC(=O)[C@H](Cc1c[nH]cn1)NC(=O)[C@H](CCCNC(=N)N)NC(=O)[C@H](Cc1c[nH]cn1)NC(=O)[C@@H](NC(=O)[C@H](CCCNC(=N)N)NC(=O)[C@@H](N)CO)[C@@H](C)O)[C@@H](C)CC)C(=O)N[C@H](C(=O)N1CCC[C@H]1C(=O)N[C@@H](CC(=O)O)C(=O)N[C@H](C(=O)N[C@@H](CC(N)=O)C(=O)N1CCC[C@H]1C(=O)N[C@@H](C)C(=O)N[C@@H](Cc1c[nH]c2ccccc12)C(=O)N[C@@H](Cc1ccc(O)cc1)C(=O)N[C@@H](C)C(=O)N[C@@H](CO)C(=O)N[C@@H](CCCNC(=N)N)C(=O)NCC(=O)N[C@H](C(=O)N[C@@H](CCCNC(=N)N)C(=O)N1CCC[C@H]1C(=O)N[C@H](C(=O)NCC(=O)N[C@@H](CCCNC(=N)N)C(=O)N[C@@H](Cc1ccccc1)C(N)=O)C(C)C)[C@@H](C)CC)[C@@H](C)CC)[C@@H](C)O [analog 2] (H-SRTHRHSMEIK([Suc-TTDA(Palmitoyl)])TPDINPAWYASRGIRPVGRF-NH2; N-terminus assumed)
[1]
  creatine, Saline/analog %: -0.033%
  creatinine, Saline/analog %: 0.035%
  ethanolamine, Saline/analog %: -0.025%
  formate, Saline/analog %: 0.032%
  fumarate, Saline/analog %: -0.055%
  galactose, Saline/analog %: 0.041%
  glucose, Saline/analog %: -0.039%
  glycine, Saline/analog %: 0.016%
  hexanoylglycine + acids (0.88 ppm), Saline/analog %: 0.157%
  hippurate (7.55 ppm), Saline/analog %: 0.047%
  hippurate (7.64 ppm), Saline/analog %: 0.039%
  hippurate (7.84 ppm), Saline/analog %: 0.035%
  lactate, Saline/analog %: 0.156%
  multiplet acids (1.6 ppm), Saline/analog %: 0.157%
  putrescin, Saline/analog %: -0.042%
  succinate, Saline/analog %: 0.163%
  taurine (3.27 ppm), Saline/analog %: -0.196%
  taurine (3.43 ppm), Saline/analog %: -0.239%
  trigonelline (8.84 ppm), Saline/analog %: -0.008%
  trigonelline (9.13 ppm), Saline/analog %: -0.024%
  vinylacetylglycine, Saline/analog %: 0.163%
Group mean
  2-OG (2.45 ppm), Mean: 11.956
  2-OG (3.01 ppm), Mean: 10.103
  2-PY (8.33 ppm), Mean: 0.992
  3-indoxylsulfate (7.51 ppm), Mean: 1.459
  3-indoxylsulfate (7.71 ppm), Mean: 0.842
  4-PY (7.97 ppm), Mean: 1.710
  4-PY (8.55 ppm), Mean: 0.484
  DMA, Mean: 5.145
  DMG, Mean: 1.928
  MA, Mean: 2.920
  MNA (8.90 ppm), Mean: 0.407
  MNA (8.97 ppm), Mean: 0.391
  MNA (9.265 ppm), Mean: 0.413
  MNA-Nox (7.75 ppm), Mean: 0.969
  MNA-Nox (8.13 ppm), Mean: 0.725
  MNA-Nox (8.49 ppm), Mean: 0.458
  MNA-Nox (8.75 ppm), Mean: 0.434
  N-carbamoylalanine (2.38 ppm), Mean: 10.919
  N-carbamoylalanine (3.31 ppm), Mean: 9.060
  N-isovalerylglycine + oxovalerate (0.92 ppm), Mean: 15.384
  TMA, Mean: 10.220
  acetate, Mean: 4.384
  allantoin, Mean: 21.272
  carnitine, Mean: 6.113
  choline, Mean: 2.053
  cis-aconitate, Mean: 9.014
  citrate (2.55 ppm), Mean: 31.737
  citrate (2.69 ppm), Mean: 28.801
  creatine+creatinine, Mean: 23.782
  creatine, Mean: 6.742
  creatinine, Mean: 11.494
  ethanolamine, Mean: 7.749
  formate, Mean: 0.205
  fumarate, Mean: 0.167
  galactose, Mean: 0.806
  glucose, Mean: 3.486
  glycine, Mean: 6.185
  hexanoylglycine + acids (0.88 ppm), Mean: 15.251
  hippurate (7.55 ppm), Mean: 4.857
  hippurate (7.64 ppm), Mean: 2.465
  hippurate (7.84 ppm), Mean: 5.092
  lactate, Mean: 7.122
  multiplet acids (1.6 ppm), Mean: 12.357
  putrescin, Mean: 8.544
  succinate, Mean: 12.532
  taurine (3.27 ppm), Mean: 20.714
  taurine (3.43 ppm), Mean: 17.197
  trigonelline (8.84 ppm), Mean: 0.310
  trigonelline (9.13 ppm), Mean: 0.125
  vinylacetylglycine, Mean: 3.494
